According to ChEMBL document CHEMBL5727017, “N-arylmethyl sulfonamide negative modulators of NR2A” (2018):

Assay: Biological Assay: Cell Culture and plating: HEK293 cells expressing NR1/NR2A (Chantest, Cleveland, Ohio) were grown to 70-80% confluency as an adherent monolayer in standard tissue culture flasks at 37° C., 5% CO2 per supplier's instructions. NR2A expression was induced by incubation with 0.3-0.4 μg/ml tetracycline in the presence of 4 mM ARL-15896 for 18-24 hours under the same growth conditions, then transferred to 30° C. for another 3-5 hours.After induction, cell culture medium was removed and cells were rinsed once with Ca2+ and Mg2+-free Dulbecco's phosphate buffered saline. Cells were then removed from the flask using TrypLE Express (Life Technologies) according to the manufacturer's instructions and collected to 50 ml centrifuge tubes. Following two washes in Ca2+/Mg2+-free HBSS with 20 mM HEPES (HHnoCa), cells were counted and viability assessed using trypan blue. To load cells with Ca2+-sensitive dye, they were resuspended in fluo-8 plus Component B (AAT Bioquest Products) diluted in HHnoCa and incubated 15 minutes at 37° C., followed by 30 minutes at room temp (in dark). Cells were then washed and resuspended in HHnoCa to remove extracellular dye and plated in 384-well plates (Falcon, uncoated) at 20,000-30,000 cells/well in a final volume of 25 μL/well.

With `Cc1ncc(CNC(=O)c2ccc(CNS(=O)(=O)c3c(C)noc3C)cn2)s1` the IC50 was 10 µM.
